Where two headings read alike, the source gives them in different places.
Key:
[1] = biological target: T1, cyclin E/CDK2 enzyme (Homo sapiens, UniProt P24941); experiment: CDK2 ELISA kinase assay (phospho-Rb ser 795 detection); assay type: biochemical; conditions: In Vitro Enzyme Assays, read-out: CDK2 IC50
T1 construct: made in house; host or cells: Sf9 insect cells, recombinant baculovirus
Summary of the method: (§1)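 Partially purified Sf9-expressed cyclin D1/CDK4, cyclin E/CDK2 or cyclin B/CDK1 phosphorylated plate-bound GST-Rb C-terminal fragment with 200 μM ATP at 30° C for 1 h.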

[2] = biological target: T2, cyclin D1/cdk 4 enzyme (Homo sapiens, UniProt P11802); experiment: CDK4 ELISA kinase assay (phospho-Rb ser 795 detection); assay type: biochemical; conditions: 200 μM ATP
T2 construct: made in house; host or cells: Sf9 insect cells, recombinant baculovirus
T2 sequence (P11802 whole entry, species assumed): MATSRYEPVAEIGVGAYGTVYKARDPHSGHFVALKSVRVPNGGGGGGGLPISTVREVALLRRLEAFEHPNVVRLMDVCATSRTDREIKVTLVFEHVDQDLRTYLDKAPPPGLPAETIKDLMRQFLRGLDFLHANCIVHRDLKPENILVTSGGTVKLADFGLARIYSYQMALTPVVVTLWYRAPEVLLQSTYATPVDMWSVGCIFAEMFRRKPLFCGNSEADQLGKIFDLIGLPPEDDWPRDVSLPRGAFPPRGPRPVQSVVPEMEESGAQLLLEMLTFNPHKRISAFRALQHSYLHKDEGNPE
T2 sequence (P24385 whole entry partner, species assumed): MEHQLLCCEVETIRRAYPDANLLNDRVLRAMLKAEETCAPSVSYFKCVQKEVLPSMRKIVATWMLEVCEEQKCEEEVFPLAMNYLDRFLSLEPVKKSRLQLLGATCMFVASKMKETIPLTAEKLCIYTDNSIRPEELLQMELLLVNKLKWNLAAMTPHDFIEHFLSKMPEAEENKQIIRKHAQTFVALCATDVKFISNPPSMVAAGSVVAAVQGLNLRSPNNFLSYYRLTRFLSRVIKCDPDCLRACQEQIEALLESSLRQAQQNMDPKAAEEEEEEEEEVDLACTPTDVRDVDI
Summary of the method: as §1

[3] = biological target: T3, cyclin B/CDK1 enzyme (Homo sapiens, UniProt P06493); experiment: CDK1 ELISA kinase assay (phospho-Rb ser 795 detection); assay type: biochemical
T3 construct: purchased New England BioLabs; host or cells: Sf9 insect cells, recombinant baculovirus
T3 sequence (P06493 whole entry): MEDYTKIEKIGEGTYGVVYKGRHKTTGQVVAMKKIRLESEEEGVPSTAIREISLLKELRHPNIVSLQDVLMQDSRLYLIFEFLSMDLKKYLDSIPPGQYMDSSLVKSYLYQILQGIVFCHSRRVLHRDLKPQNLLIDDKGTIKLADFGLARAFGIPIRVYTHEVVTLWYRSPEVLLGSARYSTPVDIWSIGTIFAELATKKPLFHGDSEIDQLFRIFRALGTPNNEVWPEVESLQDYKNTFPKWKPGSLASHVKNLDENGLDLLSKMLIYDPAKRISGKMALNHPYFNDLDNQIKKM
T3 sequence (P14635 whole entry partner): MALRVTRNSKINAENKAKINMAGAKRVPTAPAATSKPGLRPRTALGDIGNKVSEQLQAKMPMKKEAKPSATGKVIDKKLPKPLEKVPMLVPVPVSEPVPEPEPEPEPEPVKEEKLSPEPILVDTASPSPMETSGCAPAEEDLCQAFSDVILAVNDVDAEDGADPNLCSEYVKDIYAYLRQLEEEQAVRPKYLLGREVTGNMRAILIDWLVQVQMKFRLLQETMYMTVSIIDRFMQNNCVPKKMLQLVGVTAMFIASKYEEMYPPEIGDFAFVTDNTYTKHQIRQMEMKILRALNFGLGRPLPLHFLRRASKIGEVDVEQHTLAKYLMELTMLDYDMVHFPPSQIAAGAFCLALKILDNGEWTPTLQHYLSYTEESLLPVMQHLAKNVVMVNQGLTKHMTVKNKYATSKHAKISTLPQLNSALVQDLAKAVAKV
Summary of the method: as §1

[4] = test system: MCF-7; experiment: Cytotoxicity assay (SRB), MCF-7; assay type: cell-based; conditions: Homo sapiens, MCF7, 72 h, read-out: In Vitro Cellular Activity IC50 MCF-7
Summary of the method: (§2)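 BT474 (12000 cells/well) was treated for 6 days, whereas HCT-116 (4000), LoVo (6000) and MCF-7 (6000) were treated for 3 days, all in RPMI 1640 containing 5% FBS. Surviving-cell percentage came from SRB dye binding measured at 540 nm.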

[5] = test system: LoVo; experiment: Cytotoxicity assay (SRB), LoVo; assay type: cell-based; conditions: Homo sapiens, LoVo, 72 h, read-out: In Vitro Cellular Activity IC50 LOVO
Summary of the method: as §2

[6] = test system: BT474; experiment: Cytotoxicity assay (SRB), BT474; assay type: cell-based; conditions: Homo sapiens, BT-474, 144 h, read-out: In Vitro Cellular Activity IC50 BT474
Summary of the method: as §2

[7] = test system: HCT-116; experiment: Cytotoxicity assay (SRB), HCT-116; assay type: cell-based; conditions: Homo sapiens, HCT-116, 72 h, read-out: In Vitro Cellular Activity IC50 HCT116
Summary of the method: as §2

[8] = In Vitro Enzyme Assays, read-out: CDK4 IC50
[9] = In Vitro Enzyme Assays, read-out: CDK1 IC50

IC50 [1]	IC50 [2, 8]	IC50 [3, 9]	Compound	IC50 ([4]; MCF-7 cells, SRB, three days)	IC50 ([5]; LoVo cells, SRB, three days)	IC50 ([6]; BT474 cells, SRB, 6 days)	IC50 ([7]; HCT116 cells, SRB, three days)	IC50 [4]	IC50 [5]	IC50 [6]	IC50 [7]	IC50 ([2]; CDK4 IC50, In Vitro Enzyme Assays)	IC50 ([3]; CDK1 IC50, In Vitro Enzyme Assays)
> 50 µM	0.48 µM	> 50 µM	CN(C)CCOc1ccc(N/C=C2\C(=O)NC(=O)c3ccc(Br)cc32)cc1 [Example 258, (4Z)-6-Bromo-4-[({4-[2-(dimethylamino)ethoxy]phenyl}amino)methylene]isoquinoline-1,3(2H,4H)-dione]	6.7 µM	5.3 µM	8.3 µM	3.5 µM						
2.5 µM	1.2 µM	20.7 µM	CN1Cc2ccc(N/C=C3\C(=O)NC(=O)c4ccc(Br)cc43)cc2C1 [Example 259, (4Z)-6-Bromo-4-{[(2-methyl-2,3-dihydro-1H-isoindol-5-yl)amino]methylene}isoquinoline-1,3(2H,4H)-dione]	5.5 µM	3.9 µM	6.8 µM	2.5 µM						
14.7 µM	22.6 µM	> 50 µM	O=C1NC(=O)c2ccc(Br)cc2/C1=C/Nc1ccc(-n2ccnc2)cc1 [Example 260, (4Z)-6-Bromo-4-({[4-(1H-imidazol-1-yl)phenyl]amino}methylene)isoquinoline-1,3(2H,4H)-dione]	> 50 µM	> 50 µM	> 50 µM	5.4 µM						
> 50 µM	0.5 µM	> 50 µM	CN1CCN(c2ccc(N/C=C3\C(=O)NC(=O)c4ccc(-c5ccc(F)cc5)cc43)cc2)CC1 [Example 263, (4Z)-6-(4-Fluorophenyl)-4-({[4-(4-methylpiperazin-1-yl)phenyl]amino}methylene)-isoquinoline-1,3(2H,4H)-dione]	3.1 µM	2.9 µM	2.9 µM	1.3 µM						
23.6 µM	34.7 µM	1.2 µM	CC(=O)Oc1cc(CN/C=C2\C(=O)NC(=O)c3ccc(Br)cc32)cc2c1OC(C)(C)O2 [Example 268, 6-({[(Z)-(6-Bromo-1,3-dioxo-2,3-dihydroisoquinolin-4(1H)-ylidene)methyl]amino}methyl)-2,2-dimethyl-1,3-benzodioxol-4-yl acetate]	35 µM	47 µM	> 50 µM	29 µM						
24.7 µM	> 50 µM	1.9 µM	CC1(C)Oc2cc(CN/C=C3\C(=O)NC(=O)c4ccc(Br)cc43)cc(OC(=O)C3CC3)c2O1 [Example 269, 6-({[(Z)-(6-Bromo-1,3-dioxo-2,3-dihydroisoquinolin-4(1H)-ylidene)methyl]amino}methyl)-2,2-dimethyl-1,3-benzodioxol-4-yl cyclopropanecarboxylate]	29 µM	41 µM	43 µM	25 µM						
38.8 µM	3 µM	> 50 µM	CN(C)CCCc1ccc(N/C=C2\C(=O)NC(=O)c3ccc(Br)cc32)cc1 [Example 270, (4Z)-6-Bromo-4-[({4-[3-(dimethylamino)propyl]phenyl}amino)methylene]isoquinoline-1,3(2H,4H)-dione]	7.2 µM	24 µM	27 µM	13 µM						
2.8 µM	1.9 µM	15.1 µM	CONCCCc1ccc(N/C=C2\C(=O)NC(=O)c3ccc(Br)cc32)cc1 [Example 274, (4Z)-6-Bromo-4-[({4-[3-(methoxyamino)propyl]phenyl}amino)methylene]isoquinoline-1,3(2H,4H)-dione]	10.3 µM	12.5 µM	12 µM	9.5 µM						
> 50 µM	14.4 µM	> 50 µM	CN(C)CCCN(C)c1ccc(N/C=C2\C(=O)NC(=O)c3ccc(Br)cc32)cc1 [Example 275, (4Z)-6-Bromo-4-[({4-[[3-(dimethylamino)propyl](methyl)amino]phenyl}amino)methylene]isoquinoline-1,3(2H,4H)-dione]	5.3 µM	8.6 µM	10 µM	4.2 µM						
> 50 µM	42.5 µM	> 50 µM	CN1CCC(Oc2ccc(N/C=C3\C(=O)NC(=O)c4ccc(Br)cc43)cc2)C1 (stereo not shown) [Example 276, (4Z)-6-Bromo-4-[({4-[(1-methylpyrrolidin-3-yl)oxy]phenyl}amino)methylene]isoquinoline-1,3(2H,4H)-dione]	4.4 µM	6.2 µM	8.3 µM	3.9 µM						
> 50 µM	0.19 µM	> 50 µM	CN1CCN(CCCNC=C2C(=O)NC(=O)c3ccc(-n4cccc4)cc32)CC1 [Example 279, 4-{[3-(4-Methyl-piperazin-1-yl)-propylamino]-methylene}-6-pyrrol-1-yl-4H-isoquinoline-1,3-dione]	5.3 µM	11 µM	6 µM	10 µM						
4.5 µM	29 µM	> 50 µM	CN(C)NC(=O)c1ccc(N/C=C2\C(=O)NC(=O)c3ccc(Br)cc32)cc1 [Example 280, 4-{[(Z)-(6-Bromo-1,3-dioxo-2,3-dihydroisoquinolin-4(1H)-ylidene)methyl]amino}-N′,N′-dimethylbenzohydrazide]	17 µM	32 µM	28 µM	21 µM						
> 50 µM	0.76 µM	> 50 µM	COC[C@@H]1CCCN1Cc1ccc(N/C=C2\C(=O)NC(=O)c3ccc(I)cc32)cc1 [Example 285, (4Z)-6-Iodo-4-{[(4-{[(2S)-2-(methoxymethyl)pyrrolidin-1-yl]methyl}phenyl)amino]methylene}isoquinoline-1,3(2H,4H)-dione]	0.79 µM	3.6 µM	0.37 µM	3.6 µM						
> 50 µM	13.8 µM	> 50 µM	CCCOc1ccc(CN/C=C2\C(=O)NC(=O)c3ccc(I)cc32)cc1OC(=O)CCl [Example 293, 5-({[(Z)-(6-Iodo-1,3-dioxo-2,3-dihydroisoquinolin-4(1H)-ylidene)methyl]amino}methyl)-2-propoxyphenyl chloroacetate]	2.2 µM	0.9 µM	0.69 µM	0.78 µM						
> 50 µM	29 µM	40.6 µM	CN1CCN(c2ccc(N/C=C3\C(=O)NC(=O)c4ccc(-c5ccc(OC(F)(F)F)cc5)cc43)cc2)CC1 [Example 298, (4Z)-4-({[4-(4-Methylpiperazin-1-yl)phenyl]amino}methylene)-6-[4-(trifluoromethoxy)phenyl]isoquinoline-1,3(2H,4H)-dione]	2.8 µM	9.8 µM	6.3 µM	2.1 µM						
8.4 µM	0.09 µM	> 50 µM	C=CC(=O)Nc1ccc(CN/C=C2\C(=O)NC(=O)c3ccc(Br)cc32)cc1O [Example 301, N-[4-({[(Z)-(6-Bromo-1,3-dioxo-2,3-dihydroisoquinolin-4(1H)-ylidene)methyl]amino}methyl)-2-hydroxyphenyl]acrylamide]	0.2 µM	0.17 µM	0.14 µM	0.17 µM						
36.3 µM	1.5 µM	> 50 µM	CN(C)CCCCCN/C=C1\C(=O)NC(=O)c2ccc(Br)cc21 [Example 304, (Z)-6-Bromo-4-((5-(dimethylamino)pentylamino)methylene)isoquinoline-1,3(2H,4H)-dione]	7.1 µM	6.7 µM	16 µM	13 µM						

Compound	IC50 [1]	IC50 [2, 8]	IC50 [3, 9]	IC50 ([4]; MCF-7 cells, SRB, three days)	IC50 ([5]; LoVo cells, SRB, three days)	IC50 ([6]; BT474 cells, SRB, 6 days)	IC50 ([7]; HCT116 cells, SRB, three days)	IC50 [4]	IC50 [5]	IC50 [6]	IC50 [7]	IC50 ([2]; CDK4 IC50, In Vitro Enzyme Assays)	IC50 ([3]; CDK1 IC50, In Vitro Enzyme Assays)
CN(C)NC(=O)Cc1ccc(N/C=C2\C(=O)NC(=O)c3ccc(Br)cc32)cc1 [Example 283, 2-(4-{[(Z)-(6-Bromo-1,3-dioxo-2,3-dihydroisoquinolin-4(1H)-ylidene)methyl]amino}phenyl)-N′,N′-dimethylacetohydrazide]	> 50 µM	10 µM	> 50 µM					9.8 µM	17 µM	16 µM	17 µM		
CC(C)[Si](Oc1cc(CN/C=C2\C(=O)NC(=O)c3ccc(Br)cc32)ccc1N)(C(C)C)C(C)C [Example 303, (4Z)-4-[({4-Amino-3-[(triisopropylsilyl)oxy]benzyl}amino)methylene]-6-bromoisoquinoline-1,3(2H,4H)-dione]	3.7 µM			10 µM	4.6 µM	3.1 µM	5.3 µM					0.39 µM	33.9 µM

Reference: patent US7713994B2 (Wyeth LLC, priority 2005, dated 2010)
